Test results as given in ChEMBL document CHEMBL5052847, “Identification of compounds that inhibit stress granule formation and tau aggregation by targeting tia1” (2021).
Activity calls are given as the source filed them. The calls are words filed in the database; no cut-off is given here.

What was measured:
[1] = test system: HT-22; test: Inhibition of TIA1 endogenously expressed in mouse HT-22 cells at 25 to 100 uM assessed as sodium arsenite-induced stress granule formation and measured by FRET assay relative to control; type: cell-based; conditions: dose 25-100 µM
[2] = organism: Homo sapiens; test: Inhibition of recombinant TIA1 (unknown origin) multimerization measured by FRET assay

Structure (SMILES)	inhibition [1]	inhibition [2]
O=c1c2ccccc2sn1-c1cccc(S(=O)(=O)Nc2ccc(Cl)cc2)c1	Active	Active
O=c1c2ccccc2sn1-c1ccc(Cl)c(S(=O)(=O)N2CCOCC2)c1	Active	Active
CCN(CC)S(=O)(=O)c1cccc(-n2sc3ccccc3c2=O)c1	Active	Active
Cc1ccc(C)c(-n2sc3cc(F)ccc3c2=O)c1	Active	Active
O=c1c2ccccc2sn1-c1ccc(Cl)cc1	Active	Active
O=C1c2ccccc2S(=O)(=O)N1c1ccccc1F	Active	Active
Cc1cccc(-n2sc3ccccc3c2=O)c1	Active	Active
O=C(O)c1ccccc1NS(=O)(=O)c1cccc(-n2sc3ccccc3c2=O)c1	Active	Active
O=c1c2ccccc2sn1-c1cccc(S(=O)(=O)N2CCCCCC2)c1	Active	Active
O=c1c2ccccc2sn1-c1nccs1	Active	Active
CN(C)S(=O)(=O)c1cccc(-n2sc3ccccc3c2=O)c1	Active	Active
